In paper PMC11621054, “Biological evaluation of semi-synthetic isoindolinone isomers produced by Stachybotrys chartarum” (Frontiers in Fungal Biology, 2024):
Entries after “also recorded” stand apart in the source; their conditions may differ.

Legend:
[1] = Hepatic phase I metabolism (oxidation), horse microsomes; type: in vitro ADME; settings: 10 µM, 90 min
Protocol: (§1) Liver microsomes and cytosol were obtained for two organisms, horse and human. Fresh horse liver was purchased locally cut to pieces of ca. 50 g each and frozen in liquid nitrogen. Until further usage, the liver was stored at -80 °C. The preparation of microsomes and cytosol was carried out according to Balk et al. ([Balk et al., 1984]), and the protein content was determined by Bradford assay with bovine serum albumin as a reference ([Bradford, 1976]). Human liver microsomes and cytosol (150 Donors Ultrapool™) were provided by Corning, Inc. (Corning, New York, NY, USA). Besides assay-specific positive controls, all assays included stability controls, moreover, matrix influences were considered. For oxidation, additional non-oxidation controls were included. Each experiment was performed in duplicate. All stated concentrations are final concentration values. The test compounds (acetoxystachybotrylactam acetate-tryptophan 2a, 2b and acetoxystachybotrylactam acetate-tryptamine 3a, 3b ) were extended by the most biologically active derivative previously characterized by our group (acetoxystachybotrylactam acetate-agmatine 4 ) ([Steinert et al., 2022]).
(§2) The phase I metabolism was investigated utilizing a NADPH- regenerating system. […] After centrifugation (4 °C, 10 min, 15,000 rpm), 150 µL of supernatant was diluted with 850 µL H2O, which was subsequently analyzed by HPLC-qToF-HRMS. […]

[2] = Hepatic phase II glucuronidation, horse microsomes; type: in vitro ADME; settings: 50 µM, 4 h; for glucuronidation: conversion and formation of glucuronides, in words: horse microsomes
Protocol: as §1
(§3) For phase II metabolism, potential sulfation and glucuronidation were investigated. For sulfation, the reaction mixture was pipetted as follows: first, ultrapure water was added and mixed with a 1 mM DTT solution (contains DTT, 100 mM phosphate buffer, 100 µM ascorbic acid, pH 7.4). Then, PAPS (100 µM) and the substance of interest (50 µM) were added, which was concluded by the addition of horse/human cytosol (10 mg protein/mL). For glucuronidation, first, ultrapure H2O, phosphate buffer (50 mM) and MgCl2 (5 mM) were added to the reaction vessel, followed by addition of the investigated substance (50 µM), UDPGA (5 µM), and horse/human microsomes (1 mg protein/mL), respectively. For both assays, the final volume was 100 µL which was subsequently incubated for 4 h at 37 °C in darkness. […] After centrifugation (4 °C, 10 min, 15,000 rpm), 150 µL of supernatant was diluted with 850 µL H2O, which was subsequently analyzed by HPLC-qToF-HRMS. […]

[3] = Hepatic phase II glucuronidation, human microsomes; type: in vitro ADME; settings: 50 µM, 4 h; for glucuronidation: conversion and formation of glucuronides, in words: human microsomes
Protocol: as §1
For phase II metabolism, potential sulfation and glucuronidation were investigated. For sulfation, the reaction mixture was pipetted as follows: first, ultrapure water was added and mixed with a 1 mM DTT solution (contains DTT, 100 mM phosphate buffer, 100 µM ascorbic acid, pH 7.4). Then, PAPS (100 µM) and the substance of interest (50 µM) were added, which was concluded by the addition of horse/human cytosol (10 mg protein/mL). For glucuronidation, first, ultrapure H2O, phosphate buffer (50 mM) and MgCl2 (5 mM) were added to the reaction vessel, followed by addition of the investigated substance (50 µM), UDPGA (5 µM), and horse/human microsomes (1 mg protein/mL), respectively. For both assays, the final volume was 100 µL which was subsequently incubated for 4 h at 37 °C in darkness. Quenching and protein precipitation was achieved by adding 200 µL of cold MeCN (-20 °C). After centrifugation (4 °C, 10 min, 15,000 rpm), 150 µL of supernatant was diluted with 850 µL H2O, which was subsequently analyzed by HPLC-qToF-HRMS. For both experiments, 50 µM 7-hydroxycumarin served as positive control.
Chromatographic separation and mass spectrometric detection were identical to the parameters already described for the fragmentation experiments for phase I and phase II glucuronidation metabolism. For sulfation, the HPLC-qToF-HRMS was operated in negative ionization mode at -4.5 kV and otherwise identical source parameters as previously described. […]

HepG2 = test: Micronucleus assay (genotoxicity, OECD 487); type: cell-based, human; settings: 1 at 25 µM, 3a at 5 and 25 µM
Protocol: The genotoxic effects of the AcAc ( 1 ) and its semi-synthetic products ( 2a , 2b; 3a , 3b ) were evaluated with the micronucleus assay, performed based on OECD Test guideline 487. HepG2 were cultivated in accordance with the descriptions of Kalinina et al. ([Kalinina et al., 2018]). The cells were seeded with 300,000 cells/slide on Polysine® slides (Epredia™ Polysine™ Microscopic Adhesion Slides, FisherScientific) in quadriPERM® culture dishes (Sarstedt, Nümbrecht, Germany) and cultivated for 24 h. Then, they were incubated with the test compounds (0.5-25 µM) in serum free DMEM for 5 h. As positive control 0.6 µM mitomycin C (MMC) was used. All tested compounds were dissolved in DMSO. Cells were washed with sterile phosphate-buffered saline (PBS) and incubated with 4 µg/mL cytokinesis inhibitor cytochalasin B (Santa Cruz Biotechnology, USA) in DMEM for 19 h. Slides were washed with PBS and cold MeOH. Afterwards, cells were fixated with MeOH at -20 °C for 1 h. […] Subsequently, cells were evaluated using a fluorescence microscope (Zeiss Axio Imager 2, Oberkochen, Germany) with filters of 365/445 nm and 546/575 nm. The micronucleus rate was evaluated by counting 1,000 binucleate cells and binucleate cells with micronuclei on each slide and calculating the proportion of binucleate cells containing one or more micronuclei. […]

[4] = Hepatic phase I metabolism (oxidation), human microsomes; type: in vitro ADME; settings: 10 µM, 90 min
Protocol: as §1, §2

[5] = Hepatic phase II sulfation, human cytosol; type: in vitro ADME; settings: 50 µM, 4 h
Protocol: as §1, §3

[6] = tested on: Human liver carcinoma cells (HepG2, HB-8065); design: method as in Steinert et al., 2022; settings: 50 µM, 24 h; data of Figure 8 for compound 1 from previous investigation; ref Steinert et al., 2022; cited from earlier work
[7] = Hepatic phase II sulfation, horse cytosol; type: in vitro ADME; settings: 50 µM, 4 h
Protocol: as §1, §3

human factor XIa = target: T1, human factor XIa (Homo sapiens, UniProt P03951); test: Serine protease inhibition assay, fluorogenic substrate, FXIa; type: biochemical; settings: endpoint RFU after 1 h, 25 °C
T1 construct: human factor XIa, HFXIA, >95% purity; Molecular Innovations; purchased Molecular Innovations HFXIA
Protocol: (§4) The inhibitory activity of further semi-synthesized compounds toward the coagulation factor XIIa, thrombin, FXIa, FXa, and trypsin was measured by quantifying the hydrolysis rate of the fluorogenic substrates as reported previously ([Korff et al., 2020]; [Platte et al., 2021]; [Imberg et al., 2022]). Briefly, the activity was tested in buffer (10 mM Tris-Cl, 150 mM NaCl, 10 mM MgCl2·6 H2O, 1 mM CaCl2·2 H2O, 0.1% w/v BSA, 0.01% v/v Triton-X100, pH 7.4) utilizing clear flat-bottom, black polystyrene 96-well plates. The enzymes (human β-FXIIa, HFXIIAB, > 95% purity; Molecular Innovations, 2.5 nM – final concentration; human α-thrombin (active) protein, ABIN2127880, > 95% purity; antibodies-online, 0.25 nM – final concentration; human Factor Xa, HFXA, > 95% purity; Molecular Innovations, 2.5 nM – final concentration; human factor XIa, HFXIA, >95% purity; Molecular Innovations, 0.5 nM – final concentration porcine trypsin; Merck, 3.5 nM – final concentration) and the fluorogenic substrates for FXIIa: Boc-Gln-Gly-Arg-AMC (Pepta Nova, 25 µM – final concentration, Km = 167 µM); for thrombin: Boc Val Pro Arg AMC (Pepta Nova, 25 µM – final concentration, Km = 18 µM); for FXa: Boc-Ile-Glu-Gly-Arg-AMC (Pepta Nova, 25 µM – final concentration); for FXIa: Boc-Glu-(OBzl)-Ala-Arg-AMC (Pepta Nova, 25 µM – final concentration); for trypsin: Z-Gly-Gly-Arg-AMC (Sigma-Aldrich, 25 µM – final concentration) were used. The fluorogenic substrate solution was added into the wells followed by the addition of test-compounds solution, and the reaction was triggered by addition of the enzyme solution (final testing volume – 150 µL). In case of blank (substrate + buffer) and control (substrate + enzyme) wells, DMSO was added instead of the test-compounds’ solution. Fluorescence intensity was measured with Microplate Reader Mithras LB 940 (Berthold Technologies, excitation at 355 nm, emission at 460 nm) for a period of 1 h with a read every minute. The reactions were performed at 25 °C. To derive % of enzyme inhibition, endpoint RFU (single fluorescence reading after 1 h) was used. As a positive controls for thrombin, FXa, FXIIa, FXIa, and trypsin were used dabigatran (500 nM), rivaroxaban (500 nM), compound “39b” (500 nM) ([Platte et al., 2021]), Inhibitor 5t (8 µM) ([Imberg et al., 2022]), Inhibitor E (2 µM) ([Erbacher et al., 2024]), respectively. Semi-synthesized compounds were screened at 200 µM.

[8] = tested on: Human liver carcinoma cells (HepG2, HB-8065); settings: HepG2, 24 h incubation, resazurin
human β-FXIIa = target: T2, human β-FXIIa (Homo sapiens, UniProt P00748); test: Serine protease inhibition assay, fluorogenic substrate, FXIIa; type: biochemical; settings: endpoint RFU after 1 h, 25 °C; for inhibition of FXIIa: 200 µM
T2 construct: human β-FXIIa, HFXIIAB, > 95% purity; Molecular Innovations; purchased Molecular Innovations HFXIIAB
Protocol: as §4

porcine trypsin = target: T3, porcine trypsin (Sus scrofa, UniProt P00761); test: Serine protease inhibition assay, fluorogenic substrate, trypsin; type: biochemical; settings: 200 µM, endpoint RFU after 1 h, 25 °C
T3 construct: porcine trypsin; Merck, 3.5 nM – final concentration; purchased Merck
Protocol: (§5) The inhibitory activity of further semi-synthesized compounds toward the coagulation factor XIIa, thrombin, FXIa, FXa, and trypsin was measured by quantifying the hydrolysis rate of the fluorogenic substrates as reported previously ([Korff et al., 2020]; [Platte et al., 2021]; [Imberg et al., 2022]). Briefly, the activity was tested in buffer (10 mM Tris-Cl, 150 mM NaCl, 10 mM MgCl2·6 H2O, 1 mM CaCl2·2 H2O, 0.1% w/v BSA, 0.01% v/v Triton-X100, pH 7.4) utilizing clear flat-bottom, black polystyrene 96-well plates. […] Fluorescence intensity was measured with Microplate Reader Mithras LB 940 (Berthold Technologies, excitation at 355 nm, emission at 460 nm) for a period of 1 h with a read every minute. […] To derive % of enzyme inhibition, endpoint RFU (single fluorescence reading after 1 h) was used. […]

human Factor Xa = target: T4, human Factor Xa (Homo sapiens, UniProt P00742); test: Serine protease inhibition assay, fluorogenic substrate, FXa; type: biochemical; settings: 200 µM, endpoint RFU after 1 h, 25 °C
T4 construct: human Factor Xa, HFXA, > 95% purity; Molecular Innovations; purchased Molecular Innovations HFXA
Protocol: as §5

[9] = Precipitation in cell culture medium; type: physicochemical; settings: cell culture medium (DMEM), 0.5% DMSO
[10] = tested on: lung adenocarcinoma cells (A549, CCL-185); settings: A549, 24 h incubation, resazurin

T2 sequence (P00748 373-615 limits assumed, other chains not shown): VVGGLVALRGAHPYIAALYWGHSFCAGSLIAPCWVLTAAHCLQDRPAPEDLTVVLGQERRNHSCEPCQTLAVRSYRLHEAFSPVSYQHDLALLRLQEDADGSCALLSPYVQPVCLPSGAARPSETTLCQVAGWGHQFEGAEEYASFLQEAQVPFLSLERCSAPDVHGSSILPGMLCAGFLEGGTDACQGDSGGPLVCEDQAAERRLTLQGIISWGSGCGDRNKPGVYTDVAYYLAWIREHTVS
T1 sequence (P03951 388-625 limits assumed): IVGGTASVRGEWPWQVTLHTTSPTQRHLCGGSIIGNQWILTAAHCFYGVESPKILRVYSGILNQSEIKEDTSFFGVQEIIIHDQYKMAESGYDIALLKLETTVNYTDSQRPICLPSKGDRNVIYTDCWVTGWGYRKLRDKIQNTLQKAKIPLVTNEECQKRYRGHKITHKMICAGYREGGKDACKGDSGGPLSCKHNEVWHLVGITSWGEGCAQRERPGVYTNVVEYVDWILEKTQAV
T1 sequence (P03951 19-387 partner limits assumed): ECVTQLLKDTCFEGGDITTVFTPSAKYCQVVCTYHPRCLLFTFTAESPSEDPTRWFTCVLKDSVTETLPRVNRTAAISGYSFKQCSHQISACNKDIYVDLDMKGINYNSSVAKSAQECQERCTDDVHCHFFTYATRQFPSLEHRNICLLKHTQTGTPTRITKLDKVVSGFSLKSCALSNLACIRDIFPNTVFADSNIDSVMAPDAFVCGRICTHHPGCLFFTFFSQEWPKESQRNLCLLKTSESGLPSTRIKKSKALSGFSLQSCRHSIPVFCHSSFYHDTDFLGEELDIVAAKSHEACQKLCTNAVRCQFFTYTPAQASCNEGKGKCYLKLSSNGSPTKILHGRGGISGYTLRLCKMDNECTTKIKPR
T4 sequence (P00742 235-488 limits assumed): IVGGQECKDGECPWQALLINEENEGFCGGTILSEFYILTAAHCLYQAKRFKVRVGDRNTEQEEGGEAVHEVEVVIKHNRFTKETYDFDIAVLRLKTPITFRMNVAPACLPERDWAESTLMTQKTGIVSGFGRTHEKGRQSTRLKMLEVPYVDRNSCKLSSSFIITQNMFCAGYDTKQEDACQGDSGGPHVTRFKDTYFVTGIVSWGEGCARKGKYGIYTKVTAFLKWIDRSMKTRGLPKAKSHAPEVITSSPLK
T4 sequence (P00742 41-179 partner limits assumed): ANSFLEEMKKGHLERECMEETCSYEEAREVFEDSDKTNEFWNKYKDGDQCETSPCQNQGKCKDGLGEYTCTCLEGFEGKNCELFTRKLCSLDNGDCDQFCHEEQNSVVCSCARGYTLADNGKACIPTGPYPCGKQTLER
T3 sequence (P00761 9-231): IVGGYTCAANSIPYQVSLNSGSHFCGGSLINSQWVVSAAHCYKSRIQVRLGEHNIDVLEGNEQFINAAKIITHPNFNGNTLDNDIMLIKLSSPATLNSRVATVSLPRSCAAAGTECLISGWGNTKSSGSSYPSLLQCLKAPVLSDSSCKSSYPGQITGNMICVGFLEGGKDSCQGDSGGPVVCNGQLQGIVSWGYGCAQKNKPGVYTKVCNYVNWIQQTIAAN

For `CC(=O)O[C@@H]1[C@H](OC(C)=O)C[C@@]2(C)C(CC[C@@H](C)[C@]23Cc2c(O)cc(C=O)c(C=O)c2O3)C1(C)C` (some centres unmarked) [Compound 1, acetoxystachybotrydial acetate], the “phase I conversion, in words” value [1] was “metabolized fastest”, the “glucuronidation: conversion and formation of glucuronides, in words” value (from here on “glucuronidation … in words”) [2] was “did not at all” and the “remaining parental compound, glucuronidation (phase II)” value ([2]; horse, 37 °C, normalized to stability control, n.d. = not detected) was “no 1 remaining in solution”. The “glucuronidation … in words” value [3] was “did not at all”, the “remaining parental compound, glucuronidation (phase II)” value ([3]; human, 37 °C, normalized to stability control, n.d. = not detected) was “no 1 remaining in solution” and the “cell damage seen in the micronucleus assay (slides excluded from evaluation)” value (HepG2) was “left the cells visibly damaged”. The “phase I conversion, in words” value [4] was “metabolized fastest”, the “metabolism under sulfation conditions, in words” value (shortened to “metabolism”) [5] was “did undergo metabolism” and the HepG2 cell viability [6] was “below 50%”. The “metabolism” value [7] was “did undergo metabolism”.
In the case of `CC(=O)OC1CC2(C)C(CCC(C)C23Cc2c(O)cc4c(c2O3)CN(C(Cc2c[nH]c3ccccc23)C(=O)O)C4=O)C(C)(C)C1OC(C)=O` (centres unmarked) [Compound 2a, Acetoxystachybotrylactam acetate-tryptophan], the inhibition at 200 µM (human factor XIa) is reported as 51%, the “cytotoxicity (cell viability, T/C), in words” value (“cytotoxicity” below) [8] is reported as “more toxic” and the inhibition at 200 µM (human β-FXIIa) is reported as 63%.
In the case of `CC(=O)OC1CC2(C)C(CCC(C)C23Cc2c(O)cc4c(c2O3)C(=O)N(C(Cc2c[nH]c3ccccc23)C(=O)O)C4)C(C)(C)C1OC(C)=O` (centres unmarked) [Compound 2b, Acetoxystachybotrylactam acetate-tryptophan], the “glucuronidation … in words” value [2] is reported as “more readily converted; also recorded: more available for glucuronidation than 2a”, the “glucuronidation … in words” value [3] is reported as “more readily converted; also recorded: more available for glucuronidation than 2a” and the inhibition at 200 µM (human factor XIa) is reported as 66%. The “cytotoxicity” value [8] was “less cytotoxic” and the inhibition at 200 µM (human β-FXIIa) was 34%.
For `CC(=O)OC1CC2(C)C(CCC(C)C23Cc2c(O)cc4c(c2O3)CN(CCc2c[nH]c3ccccc23)C4=O)C(C)(C)C1OC(C)=O` (centres unmarked) [Compound 3a, Acetoxystachybotrylactam acetate-tryptamine], the “cell damage seen in the micronucleus assay (slides excluded from evaluation)” value (HepG2) was “impaired cell viability even more”, the inhibition of trypsin (porcine trypsin) was “no inhibition” and the “inhibition of FXa” value (human Factor Xa) was “no inhibition”. The “concentration at which precipitation in cell culture medium starts” value [9] was at least 10 µM, the inhibition at 200 µM (human factor XIa) was 9% and the “inhibition of FXIIa” value (human β-FXIIa) was “no inhibition”.
With `CC(=O)OC1CC2(C)C(CCC(C)C23Cc2c(O)cc4c(c2O3)C(=O)N(CCc2c[nH]c3ccccc23)C4)C(C)(C)C1OC(C)=O` (centres unmarked) [Compound 3b, Acetoxystachybotrylactam acetate-tryptamine] the inhibition of trypsin (porcine trypsin) was “no inhibition”, the “inhibition of FXa” value (human Factor Xa) was “no inhibition” and the “cytotoxicity” value [10] was “no impact on cell viability was observed”. The “metabolism” value [5] was “did undergo metabolism”, the “concentration at which precipitation in cell culture medium starts” value [9] was at least 1 µM and the inhibition at 200 µM (human factor XIa) was 17%. For the same molecule, the “inhibition of FXIIa” value (human β-FXIIa) was “no inhibition” and the “metabolism” value [7] was “did undergo metabolism”.
